In brackets after ≈: the same amount, converted by molar mass. Several values for one entry are separate records, joined by “and”; a condition that tells them apart may be missing. Equal entries are not always repeated.

What all share (test): ≥ marks a high value that may be exact or a test limit, other limits are often not marked, values filed in µg/mL are converted to µM
Assay [1] concerns Aspergillus flavus KCTC 6905.
Assay [2] deals with Aspergillus fumigatus KCTC 6145.
The subject of assay [3] is Candida krusei CCARM 14017.
In assay [4] the test system is Candida parapsilosis CCARM 14016.
Assay [5] has as its system Candida tropicalis KCTC 7221.
Assay [6] deals with Fusarium verticillioides KCTC 6149.
Assay [7] relates to Trichosporon beigelii KCTC 7707.
Assay [8] relates to Candida albicans ATCC 10231.
For assay [9], the system named is Cryptococcus neoformans ATCC 32264.
For assay [10], the system named is Escherichia coli ATCC 25922.
In assay [11] the test system is Escherichia coli.
Assay [12] relates to Pseudomonas aeruginosa ATCC 27853.
The subject of assay [13] is Salmonella enterica subsp. enterica serovar Enteritidis.
Assay [14] deals with Salmonella sp.
Assay [15] relates to Staphylococcus aureus ATCC 29213.
The subject of assay [16] is Staphylococcus aureus ATCC 43300.
Assay [17] has as its system Yersinia enterocolitica.
For assay [18], the system named is Acinetobacter baumannii ATCC 7978.
The test system of assay [19] is Enterococcus faecium E007.
Assay [20] has as its system Klebsiella pneumoniae WGLW2.
For assay [21], the system named is Staphylococcus aureus ATCC 29231.
In assay [22] the test system is Staphylococcus aureus MW2.
In assay [23] the test system is Candida albicans.
Assay [24] has as its system Staphylococcus aureus ATCC 49476.
Assay [25] concerns Staphylococcus aureus MR.
The test system of assay [26] is Aeromonas veronii ATCC 35624.
In assay [27] the test system is Aeromonas veronii CL0901.
Assay [28] relates to Aeromonas veronii X-1-06909.
For assay [29], the system named is Candida albicans CMCC 98001.
Assay [30] deals with Escherichia coli CVCC 1515.
Assay [31] relates to Escherichia coli CVCC 195.
Assay [32] has as its system Escherichia coli CVCC 25922.
Assay [33] has as its system Escherichia coli CVCC O157.
In assay [34] the test system is Pseudomonas aeruginosa CICC 21630.
Assay [35] relates to Salmonella enterica subsp. enterica serovar Enteritidis CVCC 3377.
Assay [36] has as its system Salmonella enterica subsp. enterica serovar Pullorum CVCC 1789.
In assay [37] the test system is Salmonella enterica subsp. enterica serovar Pullorum CVCC 1809.
Assay [38] has as its system Salmonella enterica subsp. enterica serovar Pullorum CVCC 533.
For assay [39], the system named is Salmonella enterica subsp. enterica serovar Typhimurium ATCC 14028.
The subject of assay [40] is Staphylococcus aureus ATCC 25923.
The subject of assay [41] is Staphylococcus aureus ATCC 546.
Assay [42] concerns Staphylococcus hyicus NCTC 10350.
Assay [43] relates to Staphylococcus hyicus.

For the molecule `CC[C@H](C)[C@H](NC(=O)CNC(=O)[C@H](CCC(N)=O)NC(=O)[C@H](C)NC(=O)[C@@H](NC(=O)[C@H](CCCCN)NC(=O)[C@H](CCCCN)NC(=O)[C@H](CC(C)C)NC(=O)[C@H](C)NC(=O)[C@H](CC(N)=O)NC(=O)[C@H](C)NC(=O)CN)C(C)C)C(=O)N[C@@H](Cc1cnc[nH]1)C(=O)N[C@@H](CCC(=O)O)C(=O)N[C@@H](C)C(=O)N[C@H](C(=O)N[C@@H](CCCCN)C(=O)N[C@@H](CC(C)C)C(=O)N[C@H](C(=O)N[C@@H](CC(N)=O)C(=O)N[C@@H](CC(N)=O)C(=O)N[C@@H](Cc1cnc[nH]1)C(=O)N[C@H](C(=O)N[C@@H](CCC(N)=O)C(N)=O)C(C)C)[C@@H](C)CC)[C@@H](C)CC` [GANALKKVAQGIHEAIKLINNHVQ], the MIC (in general, the least concentration at which growth counts as inhibited) in assay [1] was ≥ 32 µM and 12 µM; in assay [2], 24 µM and 16 µM; in assay [3] it was 6 µM and 4 µM; in [4], not below 64 µM; in assay [5], 2 µM and 1.5 µM; in assay [6] it was 24 µM and 16 µM. The molecule also came in with an MIC in assay [7] of 2 µM (≈ 5.13 µg/mL).
Turning to `CC[C@H](C)[C@H](NC(=O)[C@H](CCC(N)=O)NC(=O)[C@@H](N)CCCN=C(N)N)C(=O)N[C@@H](CCCN=C(N)N)C(=O)N[C@@H](CCCN=C(N)N)C(=O)N[C@@H](Cc1c[nH]c2ccccc12)C(=O)N[C@@H](Cc1c[nH]c2ccccc12)C(=O)N[C@@H](CCC(N)=O)C(=O)N[C@@H](Cc1c[nH]c2ccccc12)C(N)=O` [RQIRRWWQW], the MIC in assay [8] was 50 µM (≈ 70.7 µg/mL); in assay [9], 25 µM (≈ 35.3 µg/mL); in assay [10], more than 50 µM; in assay [11], 44.7 µM (≈ 63.2 µg/mL); in [12], more than 50 µM; in assay [13], not below 50 µM. Besides, the MIC in [14] is 30 µM (≈ 42.4 µg/mL); in assay [15], more than 50 µM; in assay [16], more than 50 µM; in assay [17], not below 50 µM.
For `CC[C@H](C)[C@H](NC(=O)[C@H](CCCCN)NC(=O)[C@H](CCCCN)NC(=O)[C@H](CC(C)C)NC(=O)[C@@H](NC(=O)[C@H](CCCCN)NC(=O)[C@H](Cc1c[nH]c2ccccc12)NC(=O)[C@@H](N)CC(C)C)[C@@H](C)CC)C(=O)N[C@@H](Cc1c[nH]c2ccccc12)C(=O)N[C@@H](CCCN=C(N)N)C(=O)N[C@H](C(=O)N[C@@H](CC(C)C)C(=O)N[C@@H](CCCCN)C(=O)N[C@@H](CC(N)=O)C(=O)N[C@@H](Cc1c[nH]c2ccccc12)C(=O)N[C@@H](CCCN=C(N)N)C(=O)O)C(C)C` [LWKILKKIWRVLKNWR], the minimum inhibitory concentration (MIC) is not below 58.7 µM in assay [18]; not below 58.7 µM in assay [19]; 29.4 µM (≈ 64 µg/mL) in [20]; 14.7 µM (≈ 32 µg/mL) in assay [21]; 14.7 µM (≈ 32 µg/mL) in assay [22].
Consider `CC[C@H](C)[C@H](NC(=O)[C@H](C)NC(=O)[C@H](CCCCN)NC(=O)CNC(=O)[C@H](C)NC(=O)[C@H](CO)NC(=O)[C@H](Cc1ccccc1)NC(=O)[C@H](CC(C)C)NC(=O)CNC(=O)CNC(=O)[C@@H](NC(=O)[C@@H](NC(=O)[C@H](Cc1cnc[nH]1)NC(=O)[C@H](Cc1cnc[nH]1)NC(=O)[C@@H](NC(=O)[C@@H](N)Cc1ccccc1)[C@@H](C)CC)[C@@H](C)CC)[C@@H](C)CC)C(=O)N[C@@H](Cc1cnc[nH]1)C(=O)N[C@@H](CCCN=C(N)N)C(=O)N[C@@H](Cc1cnc[nH]1)C(=O)N[C@@H](Cc1cnc[nH]1)C(=O)N[C@@H](CCCN=C(N)N)C(=O)N[C@@H](CCCN=C(N)N)C(=O)N[C@@H](CCCN=C(N)N)C(=O)N[C@@H](CCCN=C(N)N)C(=O)N[C@@H](CCCN=C(N)N)C(=O)O` [FIHHIIGGLFSAGKAIHRHHRRRRR], for which the MIC in assay [23] is 42.3 µM (≈ 128 µg/mL); in assay [12], 84.5 µM (≈ 256 µg/mL); in assay [24] it was not below 42.3 µM; in assay [25], not below 169 µM.
For the molecule `CC(C)[C@H](N)C(=O)N[C@@H](Cc1ccccc1)C(=O)N[C@@H](C)C(=O)N[C@@H](Cc1c[nH]c2ccccc12)C(=O)N[C@@H](CC(N)=O)C(=O)N[C@H](C(=O)N[C@H]1CSSC[C@@H](C(=O)N[C@@H](Cc2cnc[nH]2)C(=O)N[C@@H](CCCN=C(N)N)C(=O)N[C@@H](CCCN=C(N)N)C(=O)N[C@@H](C)C(=O)N[C@@H](CC(N)=O)C(N)=O)NC(=O)[C@H](C(C)C)NC(=O)[C@H](CCCN=C(N)N)NC(=O)[C@H](C(C)C)NC(=O)[C@H](C(C)C)NC(=O)[C@H](CC(N)=O)NC(=O)[C@H](CCCN=C(N)N)NC(=O)[C@H](Cc2ccc(O)cc2)NC(=O)[C@H](C(C)C)NC1=O)C(C)C` [VFAWNVCVYRNVVRVCHRRAN], the MIC in assay [26] is 6.25 µM (≈ 16 µg/mL); in assay [27] it was 12.5 µM (≈ 32 µg/mL); in [28] it was 12.5 µM (≈ 32 µg/mL); in assay [29], not below 50 µM; in assay [30] it was 1.56 µM (≈ 4 µg/mL); in assay [31], 3.12 µM (≈ 7.99 µg/mL). Besides, the MIC in assay [32] worked out at 3.12 µM (≈ 7.99 µg/mL); in assay [33], 3.12 µM (≈ 7.99 µg/mL); in assay [34] it was 12.5 µM (≈ 32 µg/mL); in assay [35] it was 0.781 µM (≈ 2 µg/mL); in assay [36], 6.25 µM (≈ 16 µg/mL); in assay [37], 3.12 µM (≈ 7.99 µg/mL). Further, the MIC was determined as 6.25 µM (≈ 16 µg/mL) in assay [38]; 6.25 µM (≈ 16 µg/mL) in assay [39]; 12.5 µM (≈ 32 µg/mL) in assay [40]; 12.5 µM (≈ 32 µg/mL) in [16]; 6.25 µM (≈ 16 µg/mL) in [41]; 25 µM (≈ 63.9 µg/mL) in assay [42]. This molecule also registered an MIC in assay [43] of 12.5 µM (≈ 32 µg/mL).

The record behind these values is DBAASP.
